Reference: patent US8822462B2, “Subunit selective NMDA receptor potentiators for the treatment of neurological conditions” (Emory University, priority 2009, dated 2014)

Columns and labels:
NR1/NR2C [1] = molecular target: T1, NR1/NR2C (Homo sapiens, UniProt Q14957); experiment: Two electrode voltage clamp, Xenopus laevis oocytes expressing NR1/NR2C; assay type: cell-based
T1 construct: expressed in transfected cells; host or cells: Xenopus laevis oocytes

NR1/NR2C [2] = molecular target: T2, NR1/NR2C (Homo sapiens, UniProt Q05586+Q14957); experiment: as above; assay type: cell-based; conditions: for activity at 100 µM: read-out: 2C percent effect at the maximum tested concentration
T2 construct: expressed in transfected cells; host or cells: Xenopus laevis oocytes
T2 sequence (Q14957 20-1233, species assumed, other chains not shown): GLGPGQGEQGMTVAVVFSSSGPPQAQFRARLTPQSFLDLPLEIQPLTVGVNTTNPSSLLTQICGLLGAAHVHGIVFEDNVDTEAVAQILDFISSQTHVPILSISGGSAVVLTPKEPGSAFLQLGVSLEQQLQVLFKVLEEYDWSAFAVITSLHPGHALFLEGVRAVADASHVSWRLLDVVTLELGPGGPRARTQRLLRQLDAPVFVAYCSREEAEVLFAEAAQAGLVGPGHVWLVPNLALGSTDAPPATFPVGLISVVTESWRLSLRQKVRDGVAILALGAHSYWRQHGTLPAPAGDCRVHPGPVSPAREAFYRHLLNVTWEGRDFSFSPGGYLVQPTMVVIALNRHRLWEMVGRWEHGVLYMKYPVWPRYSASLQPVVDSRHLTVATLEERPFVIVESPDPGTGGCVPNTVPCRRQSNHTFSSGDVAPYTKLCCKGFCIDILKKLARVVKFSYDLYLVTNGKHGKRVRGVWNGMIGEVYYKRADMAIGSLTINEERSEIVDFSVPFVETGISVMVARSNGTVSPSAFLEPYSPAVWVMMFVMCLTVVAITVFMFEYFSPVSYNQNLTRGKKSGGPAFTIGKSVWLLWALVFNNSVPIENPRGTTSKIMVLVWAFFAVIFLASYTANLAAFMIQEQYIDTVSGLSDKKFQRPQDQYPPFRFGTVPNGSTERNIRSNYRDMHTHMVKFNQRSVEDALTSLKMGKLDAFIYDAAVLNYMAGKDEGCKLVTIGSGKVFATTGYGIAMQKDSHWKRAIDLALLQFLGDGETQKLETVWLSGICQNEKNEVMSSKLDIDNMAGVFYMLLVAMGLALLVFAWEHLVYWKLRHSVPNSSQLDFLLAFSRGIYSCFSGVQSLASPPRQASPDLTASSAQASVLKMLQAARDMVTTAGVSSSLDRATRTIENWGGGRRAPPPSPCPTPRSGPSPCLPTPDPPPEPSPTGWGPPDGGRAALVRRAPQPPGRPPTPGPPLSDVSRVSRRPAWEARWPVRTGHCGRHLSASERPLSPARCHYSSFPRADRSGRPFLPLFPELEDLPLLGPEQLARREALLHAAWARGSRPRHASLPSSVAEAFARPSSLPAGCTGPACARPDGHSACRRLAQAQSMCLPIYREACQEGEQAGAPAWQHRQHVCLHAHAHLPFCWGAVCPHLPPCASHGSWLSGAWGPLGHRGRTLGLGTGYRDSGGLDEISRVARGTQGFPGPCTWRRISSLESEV

NR1/NR2D [3] = molecular target: T3, NR1/NR2D (Homo sapiens, UniProt O15399); experiment: Single channel currents in excised outside-out patches; assay type: cell-based; design: expressed in transfected cells
Description: Values are mean+SEM (n=14-20). […] C is the closed level; broken line is the open level.
Our initial studies varying the compound structure confirm that there are strict requirements for the position and type of substituent on the isoquinoline backbone (see Table 3).
Target sequence in this assay (O15399 28-1336, other chains not shown): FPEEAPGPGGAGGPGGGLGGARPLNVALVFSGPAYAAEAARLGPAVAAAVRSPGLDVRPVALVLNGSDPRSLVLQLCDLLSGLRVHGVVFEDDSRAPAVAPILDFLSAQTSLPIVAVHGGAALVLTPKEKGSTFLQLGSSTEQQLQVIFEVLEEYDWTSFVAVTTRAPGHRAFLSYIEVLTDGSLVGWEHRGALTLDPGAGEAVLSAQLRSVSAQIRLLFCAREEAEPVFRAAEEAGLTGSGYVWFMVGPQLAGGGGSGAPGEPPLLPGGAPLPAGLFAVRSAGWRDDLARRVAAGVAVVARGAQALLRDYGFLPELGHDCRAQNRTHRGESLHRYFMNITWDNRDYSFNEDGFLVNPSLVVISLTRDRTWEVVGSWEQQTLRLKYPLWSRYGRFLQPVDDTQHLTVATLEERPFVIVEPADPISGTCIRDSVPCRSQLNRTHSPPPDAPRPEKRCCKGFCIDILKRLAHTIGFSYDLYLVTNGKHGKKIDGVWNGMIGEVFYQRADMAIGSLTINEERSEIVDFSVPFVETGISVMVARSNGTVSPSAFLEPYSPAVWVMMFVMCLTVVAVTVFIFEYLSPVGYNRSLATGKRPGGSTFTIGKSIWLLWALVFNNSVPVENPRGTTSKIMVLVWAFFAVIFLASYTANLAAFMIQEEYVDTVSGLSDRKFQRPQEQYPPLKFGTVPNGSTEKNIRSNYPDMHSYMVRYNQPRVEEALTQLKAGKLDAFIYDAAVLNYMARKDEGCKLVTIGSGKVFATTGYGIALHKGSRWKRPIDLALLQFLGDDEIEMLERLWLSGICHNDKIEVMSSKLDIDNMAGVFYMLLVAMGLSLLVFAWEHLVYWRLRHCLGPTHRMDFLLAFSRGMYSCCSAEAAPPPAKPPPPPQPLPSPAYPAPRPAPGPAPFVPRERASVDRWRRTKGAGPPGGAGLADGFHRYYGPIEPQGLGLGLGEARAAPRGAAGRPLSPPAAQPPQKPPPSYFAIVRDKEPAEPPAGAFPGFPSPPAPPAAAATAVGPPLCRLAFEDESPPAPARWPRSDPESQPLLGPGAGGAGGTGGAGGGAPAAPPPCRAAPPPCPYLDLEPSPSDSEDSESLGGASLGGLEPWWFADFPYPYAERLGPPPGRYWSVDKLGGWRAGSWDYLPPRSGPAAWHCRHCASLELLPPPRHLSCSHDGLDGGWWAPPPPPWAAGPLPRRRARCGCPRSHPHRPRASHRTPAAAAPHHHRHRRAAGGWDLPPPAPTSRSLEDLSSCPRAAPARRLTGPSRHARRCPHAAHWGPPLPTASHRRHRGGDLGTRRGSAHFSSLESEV

NR1/NR2A = molecular target: T4, NR1/NR2A (Homo sapiens, UniProt Q12879); experiment: Two electrode voltage clamp, Xenopus laevis oocytes expressing NR1/NR2A; assay type: cell-based; conditions: read-out: 2A percent effect at the maximum tested concentration
T4 construct: expressed in transfected cells; host or cells: Xenopus laevis oocytes
Description: (§1) In the table above, potency is expressed as fitted EC50 value to average composite concentration-effect data constructed from current responses recorded under two electrode voltage clamp from Xenopus laevis oocytes expressing either NR1/NR2A, B, C, or D, GluR1, or GluR6. No effect means less than 20% change in response amplitude at 30 μM of drug.

[4] = system: native NMDA receptor responses in subthalamic neurons; experiment: Patch clamp recording from slices of subthalamic nuclei, pressure-applied NMDA/glycine; assay type: cell-based
NR1/NR2D [5] = molecular target: NR1/NR2D (Homo sapiens, UniProt O15399+Q05586); experiment: Two electrode voltage clamp, Xenopus laevis oocytes expressing NR1/NR2D; conditions: for activity at 100 µM: read-out: 2D percent effect at the maximum tested concentration, at 100 μM
Sequence of NR1/NR2D (Homo sapiens, UniProt O15399+Q05586) (O15399 28-1336, species assumed, other chains not shown): as the sequence (O15399 28-1336, other chains not shown) above

NR1/NR2D [6] = molecular target: T3, NR1/NR2D; experiment: as above
Target sequence in this assay (O15399 28-1336, species assumed, other chains not shown): as the sequence (O15399 28-1336, other chains not shown) above

NR1/NR2B = molecular target: T5, NR1/NR2B (Homo sapiens, UniProt Q05586+Q13224); experiment: Two electrode voltage clamp, Xenopus laevis oocytes expressing NR1/NR2B; assay type: cell-based; conditions: at 100 μM; read-out: 2B percent effect at the maximum tested concentration
T5 construct: expressed in transfected cells; host or cells: Xenopus laevis oocytes
T5 sequence (Q13224 27-1484, species assumed, other chains not shown): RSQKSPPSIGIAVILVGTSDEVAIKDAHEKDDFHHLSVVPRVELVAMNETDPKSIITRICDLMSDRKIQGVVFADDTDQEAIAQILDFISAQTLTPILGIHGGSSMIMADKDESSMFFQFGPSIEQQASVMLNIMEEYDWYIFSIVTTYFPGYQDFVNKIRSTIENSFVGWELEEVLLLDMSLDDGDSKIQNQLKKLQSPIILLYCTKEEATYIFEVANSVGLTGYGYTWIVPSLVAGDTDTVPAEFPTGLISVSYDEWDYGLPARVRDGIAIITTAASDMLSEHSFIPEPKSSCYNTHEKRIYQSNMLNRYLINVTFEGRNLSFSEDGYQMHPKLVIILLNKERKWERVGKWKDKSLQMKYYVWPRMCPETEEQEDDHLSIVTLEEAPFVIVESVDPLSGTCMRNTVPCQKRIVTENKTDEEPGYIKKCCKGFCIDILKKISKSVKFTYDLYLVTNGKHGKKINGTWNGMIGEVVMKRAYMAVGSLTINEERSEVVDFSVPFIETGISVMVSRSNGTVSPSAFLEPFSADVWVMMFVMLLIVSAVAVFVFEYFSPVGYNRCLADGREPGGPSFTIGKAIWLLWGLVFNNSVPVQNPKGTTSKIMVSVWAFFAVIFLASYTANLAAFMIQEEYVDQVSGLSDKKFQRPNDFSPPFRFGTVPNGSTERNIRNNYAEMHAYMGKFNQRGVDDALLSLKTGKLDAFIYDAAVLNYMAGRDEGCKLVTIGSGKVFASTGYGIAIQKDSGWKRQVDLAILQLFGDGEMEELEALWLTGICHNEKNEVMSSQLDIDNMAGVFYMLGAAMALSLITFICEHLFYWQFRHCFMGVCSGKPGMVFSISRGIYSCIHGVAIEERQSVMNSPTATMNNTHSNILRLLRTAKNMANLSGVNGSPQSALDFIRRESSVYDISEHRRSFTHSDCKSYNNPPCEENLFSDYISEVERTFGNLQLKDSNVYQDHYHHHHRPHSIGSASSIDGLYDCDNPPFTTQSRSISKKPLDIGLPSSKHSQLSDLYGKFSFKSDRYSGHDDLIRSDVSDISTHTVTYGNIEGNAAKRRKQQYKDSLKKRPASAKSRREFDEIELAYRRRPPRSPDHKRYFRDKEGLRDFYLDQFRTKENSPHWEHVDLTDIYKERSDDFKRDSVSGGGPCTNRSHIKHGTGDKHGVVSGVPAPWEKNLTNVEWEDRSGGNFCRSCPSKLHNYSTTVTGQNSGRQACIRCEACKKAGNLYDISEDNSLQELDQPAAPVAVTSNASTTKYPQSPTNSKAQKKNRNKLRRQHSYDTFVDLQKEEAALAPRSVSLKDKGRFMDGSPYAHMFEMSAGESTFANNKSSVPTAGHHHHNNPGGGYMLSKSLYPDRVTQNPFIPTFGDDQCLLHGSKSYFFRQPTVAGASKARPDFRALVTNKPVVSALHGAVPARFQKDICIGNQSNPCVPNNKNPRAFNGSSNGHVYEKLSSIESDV
Description: as §1

[7] = system: recombinant NMDA receptors; experiment: Voltage and pH dependence of potentiation of recombinant NMDA receptors; assay type: cell-based
Description: FIG. 2A illustrates the subunit-selectivity with which the compounds of Formula A, including a specific compound herein referred to as DIQ-1180, acts on recombinant NMDA receptors. The structure of DIQ-1180 is shown below.
The Hill slope at both receptors for all analogues was greater than 1, consistent with a cooperative effect of binding at two sites.

T1 sequence (Q14957 20-1233, species assumed, other chains not shown): as the sequence (Q14957 20-1233, species assumed, other chains not shown) above

**Q.** With COc1ccc(OCC2c3cc(OC)c(OC)cc3CCN2C(=O)c2ccccc2)cc1 (stereo not drawn) [compound 1180] as the compound, how does the “maximal potentiation at NR2C-containing receptors” value (NR1/NR2C [1]; Example 1) read?
**A.** 181%

**Q.** What about the EC50 (NR1/NR2C [2]; Example 1, read-out: EC50 value for potentiation of NR2C-containing receptors) of the same compound?
**A.** 11 µM

**Q.** What about the IC50 (NR1/NR2C [2]; fitted to composite concentration-effect data, read-out: 2C IC50) of the same compound?
**A.** 12 µM

**Q.** What about the Emax (NR1/NR2C [2]; maximal effect of fit, read-out: 2C Max) of the same compound?
**A.** 145%

**Q.** What about the “total open probability (nPo)” value (NR1/NR2D [3]; glutamate/glycine-activated unitary currents, increased from 0.083 without compound) of the same compound?
**A.** 0.207

**Q.** And the “opening frequency of recombinant NR1/NR2D single channel currents” value (NR1/NR2D [3]; maximally effective glutamate/glycine, FIG. 2B)?
**A.** increased the opening frequency

**Q.** What about the opening frequency (NR1/NR2D [3]; reversed by washout) of the same compound?
**A.** 178 % of control

**Q.** And the activity at 100 µM (NR1/NR2A)?
**A.** 81%

**Q.** What about the “current response to pressure-applied NMDA/glycine” value ([4]; 30 μM, listed as DIQ-1180) of the same compound?
**A.** potentiated

**Q.** And the EC50 (NR1/NR2D [5])?
**A.** 13 µM

**Q.** And the IC50 (NR1/NR2D [5])?
**A.** 11 µM

**Q.** What about the Emax (NR1/NR2D [5]; read-out: 2D Max) of the same compound?
**A.** 156%

**Q.** What about the “maximal potentiation at NR2D-containing receptors” value (NR1/NR2D [6]; Example 1) of the same compound?
**A.** 162%

**Q.** What about the activity at 100 µM (NR1/NR2B) of the same compound?
**A.** 67%

**Q.** And the “voltage dependence of potentiating actions” value ([7]; n=7)?
**A.** voltage-independent

**Q.** And the “pH dependence of potentiating actions” value ([7]; n=10-16)?
**A.** pH-independent

**Q.** Which “2C percent effect at the maximum tested concentration” value (NR1/NR2C [1]; at 100 μM) does the source give for CSC1=NCCN1C(=O)c1ccc2ccccc2c1 [compound 1397] here?
**A.** 98% at 100 μM

**Q.** What about the “2D percent effect at the maximum tested concentration” value (NR1/NR2D [6]; at 100 μM) of the same compound?
**A.** 87% at 100 μM

**Q.** NC(CCCP(=O)(O)O)C(=O)O (racemic) [DL-APV, reference compound] was tested. Which “current response to pressure-applied NMDA/glycine” value ([4]; 100 μM) did it give?
**A.** blocked

**Q.** What does the source list for Cc1csc(C(=O)O)c1NC(=O)c1ccc(C(C)(C)C)cc1 [compound 1428]?
**A.** activity at 100 µM (NR1/NR2C [2]): 80%; activity at 100 µM (NR1/NR2A): 105%; activity at 100 µM (NR1/NR2D [5]): 72%; activity at 100 µM (NR1/NR2B): 70%

**Q.** Which results are given for COc1ccc(OCC2c3cc(OC)c(OC)cc3CCN2C(=O)c2ccc([N+](=O)[O-])cc2)cc1 (stereo not drawn) [compound 1370]?
**A.** activity at 100 µM (NR1/NR2C [2]): 83%; activity at 100 µM (NR1/NR2A): 77%; activity at 100 µM (NR1/NR2D [5]): 95%; activity at 100 µM (NR1/NR2B): 78%

**Q.** COc1cc2c(cc1OC)C(COc1ccc(OC(F)(F)F)cc1)N(C(=O)c1cccc(Cl)c1)CC2 (stereo not drawn) [1180-9] was tested. Which activity at 100 µM (NR1/NR2C [2]) did it give?
**A.** 109%

**Q.** What about the activity at 100 µM (NR1/NR2A) of the same compound?
**A.** 87%

**Q.** And the activity at 100 µM (NR1/NR2D [5])?
**A.** 99%

**Q.** What about the activity at 100 µM (NR1/NR2B) of the same compound?
**A.** 97%

**Q.** Which activity at 100 µM (NR1/NR2C [2]) does the source give for COc1ccc(OCC2c3cc(OC)c(OC)cc3CCN2Cc2ccccc2)cc1 (stereo not drawn) [1180-17] here?
**A.** 95%

**Q.** What about the activity at 20 µM (NR1/NR2A; at 20 μM) of the same compound?
**A.** 50%

**Q.** And the activity at 100 µM (NR1/NR2D [5])?
**A.** 83%

**Q.** And the activity at 100 µM (NR1/NR2B)?
**A.** 90%

**Q.** Which activity at 100 µM (NR1/NR2C [2]) does the source give for COC(=O)c1ccc(OCC2c3cc(OC)c(OC)cc3CCN2C(=O)c2cccc(Cl)c2)cc1 (stereo not drawn) [compound 1444] here?
**A.** 102%

**Q.** What about the activity at 100 µM (NR1/NR2A) of the same compound?
**A.** 91%

**Q.** What about the activity at 100 µM (NR1/NR2D [5]) of the same compound?
**A.** 111%

**Q.** What about the activity at 100 µM (NR1/NR2B) of the same compound?
**A.** 68%
